In US12473250B2, “Molecular design of new antibiotics and antibiotic adjuvants against MCR strains” (priority 2019, dated 2025):
Values after ≈ are worked out from the molar mass of the structure shown.

Legend:
Format in all cases: cell-based
[1] = test system: colistin resistant MCR (+) E. Coli strains; test: MIC, broth microdilution, compound alone; settings: compound alone
Method: (§1) MIC experiments of the antimicrobial agents were determined by a modified broth microdilution method in accordance with the Clinical and Laboratory Standards Institute (CLSI) guidelines using 96 well culture plates. In brief, serial dilutions of all plates were prepared at different concentrations (μg). The inoculum suspension was prepared by adding isolated colonies from a 18-20 hours on TSA plate into phosphate buffer (0.31 mM, pH 7.2) or in water for injection (BBraun) and adjusting the suspension to a turbidity equivalent to 0.5 McFarland Standard. Each well contained a final bacterial concentration of approximately 5×10^5 colony forming units (CFU)/mL. The plate was covered and incubated at 35° C. for 24 hours. […] For the microdilution plates, turbidity in wells can be measured at OD600 using TECAN infinite M200Pro. MIC was determined as […] concentration that gives a 99 percent inhibition.

[2] = test system: colistin resistant MCR (−) E. Coli strains; test: MIC, broth microdilution, compound alone
Method: as §1

[3] = test system: colistin resistant MCR (−) E. Coli strains; test: Synergy study: colistin MIC in the presence of compound; settings: compound at 5 μg (Table 2a: 5 ug/ml)
Method: (§2) The MICs of the individual drugs and LC compound in combinations were determined using the broth microdilution technique as recommended by the CLSI whereby the two anti-microbial agents were added in an equal amount. (e.g.: 50 μL of Colistin: 50 μL of LC compounds). Diluted media containing compounds and antibiotics will be serially diluted 2-fold, and LC compounds and antibiotics alone or in combination will be assayed at fixed synergy concentration. In all cases, the lowest concentration at which no visible growth occurred was be recorded to be the MIC value of individual and combined antibacterial agents. The results were obtained after 24 hours of incubation.

[4] = test system: colistin resistant MCR (+) E. Coli strains; test: as above
Method: as §2

various pathogens = test: microbe, parasite or virus in culture
Method: as §2
Using the combination of LC100 and colistin, the activity of a broad range of strains was further tested (Table 7).

[5] = strain 7028444207 (Table 1b), MCR (+)

CC(C)=CCc1c(OCCNCCN)ccc(C(=O)/C=C/c2ccc(OCCNCCN)cc2)c1O [LC143]
MIC ([1]; strain 6075066346, MCR (+)): 6.25 µg/mL (≈ 12.6 µM) | MIC ([1]; strain 6083655967, MCR (+)): 6.25 µg/mL (≈ 12.6 µM) | MIC ([1]; strain 7103531927, MCR (+)): 12.5 µg/mL (≈ 25.2 µM) | MIC ([2]; strain 6083672926, MCR (−)): 12.5 µg/mL (≈ 25.2 µM) | MIC ([2]; strain 7023446108, MCR (−)): 6.25 µg/mL (≈ 12.6 µM) | MIC ([2]; strain 7033607097, MCR (−)): 6.25 µg/mL (≈ 12.6 µM) | Colistin MIC in the presence of the compound ([3]; strain 6083672926, MCR(−)): ≤0.0975 µg/mL | Colistin MIC in the presence of the compound ([3]; strain 7023446108, MCR(−)): ≤0.0975 µg/mL | Colistin MIC in the presence of the compound ([3]; strain 7033607097, MCR(−)): ≤0.0975 µg/mL

CCN(CC)CCCCOc1ccc(/C=C/C(=O)c2ccc(OCCCCN(CC)CC)cc2O)cc1 [LC107]
MIC ([1]; strain 6075066346, MCR (+)): >100 µg/mL | MIC ([1]; strain 6083655967, MCR (+)): >100 µg/mL | MIC ([1]; strain 6103645107, MCR (+)): >100 µg/mL | MIC ([1]; strain 6123520276, MCR (+)): >100 µg/mL | MIC ([1]; strain 7013177695, MCR (+)): >100 µg/mL | MIC ([1]; strain 7023436560, MCR (+)): >100 µg/mL | MIC [1, 5]: >100 µg/mL | Colistin MIC in the presence of the compound ([4]; strain 6075066346, MCR(+), compound at 10 μg (Table 2a: 10 ug/ml)): 3.125 µg/mL | Colistin MIC in the presence of the compound ([4]; strain 6083655967, MCR(+), compound at 10 μg (Table 2a: 10 ug/ml)): 3.125 µg/mL | Colistin MIC in the presence of the compound ([4]; strain 6103645107, MCR(+), compound at 10 μg (Table 2a: 10 ug/ml)): 3.125 µg/mL | Colistin MIC in the presence of the compound ([4]; strain 6123520276, MCR(+), compound at 10 μg (Table 2a: 10 ug/ml)): 3.125 µg/mL | Colistin MIC in the presence of the compound ([4]; strain 7013177695, MCR(+), compound at 10 μg (Table 2a: 10 ug/ml)): 3.125 µg/mL | Colistin MIC in the presence of the compound ([4]; strain 7023436560, MCR(+), compound at 10 μg (Table 2a: 10 ug/ml)): 6.25 µg/mL | Colistin MIC in the presence of the compound ([4]; strain 7023444207, MCR(+), compound at 10 μg (Table 2a: 10 ug/ml)): 6.25 µg/mL

CCN(CC)CCCCOc1ccc(C2COc3c(ccc4c3C=CC(C)(C)O4)C2)c(OCCCCN(CC)CC)c1 (centres unmarked) [LC105]
MIC ([1]; strain 6075066346, MCR (+)): 25 µg/mL (≈ 43.2 µM) | MIC ([1]; strain 6083655967, MCR (+)): 25 µg/mL (≈ 43.2 µM) | MIC ([1]; strain 6103645107, MCR (+)): 25 µg/mL (≈ 43.2 µM) | MIC ([1]; strain 6123520276, MCR (+)): 25 µg/mL (≈ 43.2 µM) | MIC ([1]; strain 7013177695, MCR (+)): 25 µg/mL (≈ 43.2 µM) | MIC ([1]; strain 7023436560, MCR (+)): 25 µg/mL (≈ 43.2 µM) | MIC [1, 5]: 25 µg/mL (≈ 43.2 µM) | Colistin MIC in the presence of the compound ([4]; strain 6075066346, MCR(+), compound at 12.5 μg): 1.56 µg/mL | Colistin MIC in the presence of the compound ([4]; strain 6083655967, MCR(+), compound at 12.5 μg): 0.78 µg/mL | Colistin MIC in the presence of the compound ([4]; strain 6103645107, MCR(+), compound at 12.5 μg): 1.56 µg/mL | Colistin MIC in the presence of the compound ([4]; strain 6123520276, MCR(+), compound at 12.5 μg): 1.56 µg/mL | Colistin MIC in the presence of the compound ([4]; strain 7013177695, MCR(+), compound at 12.5 μg): 0.78 µg/mL | Colistin MIC in the presence of the compound ([4]; strain 7023436560, MCR(+), compound at 12.5 μg): 1.56 µg/mL | Colistin MIC in the presence of the compound ([4]; strain 7023444207, MCR(+), compound at 12.5 μg): 0.78 µg/mL

C[C@@H](O)[C@H]1C(=O)N2C(C(=O)O)=C(S[C@@H]3CN[C@H](CNS(N)(=O)=O)C3)[C@H](C)[C@H]12 [Doripenem]
MIC (various pathogens; Escherichia coli, 6083655967 [MCR 1+, E. Coli]): < 0.0975 µg/mL | MIC (various pathogens; Escherichia coli, 6093560257 [MCR 1+, E. Coli, NDM-1]): 50 µg/mL | MIC (various pathogens; Escherichia coli, 6123520276 [MCR 1+, E. Coli]): < 0.0975 µg/mL | MIC (various pathogens; Escherichia coli, 7023436560 [MCR 1+, E. Coli]): < 0.0975 µg/mL | MIC (various pathogens; Escherichia coli, 7023444207 [MCR 1+, E. Coli]): < 0.0975 µg/mL | MIC (various pathogens; Escherichia coli, 7023446108 [MCR 1−, E. Coli]): 0.0975 µg/mL | MIC (various pathogens; Escherichia coli, 7033607097 [MCR 1−, E. Coli]): < 0.0975 µg/mL | MIC (various pathogens; Escherichia coli, 7103531927 [MCR 1+, E. Coli, KPC+]): 1.56 µg/mL | MIC (various pathogens; Escherichia coli, 7113636863 [MCR 1+, E. Coli, NDM-1]): 25 µg/mL | MIC (various pathogens; Escherichia coli, E. Coli CRE 11804): > 25 µg/mL | MIC (various pathogens; Escherichia coli, E. Coli CRE 17528): 1.56 µg/mL | MIC (various pathogens; KLPN CRE 7955): > 25 µg/mL | MIC (various pathogens; KLPN CRE 16260): > 50 µg/mL | MIC (various pathogens; KLPN CRE 27025): 25 µg/mL | MIC (various pathogens; KLPN CRE 55301): 1.56 µg/mL | MIC (various pathogens; PAE DM 4150): 6.25 µg/mL | MIC (various pathogens; PAE DM 23155): 0.195 µg/mL | MIC (various pathogens; PAE DM 23257): 0.78 µg/mL | MIC (various pathogens; PAE DM 23376): 0.78 µg/mL | MIC (various pathogens; PAE DR 4877): 0.78 µg/mL | MIC (various pathogens; PAE DR 5790, ¼ MHB): 12.5 µg/mL | MIC (various pathogens; PAE DU 14476): > 25 µg/mL
